Laboratory results taken from patent US6943172B2, “Rho-kinase inhibitors” (Bayer Pharmaceuticals Corporation, priority 2002, dated 2005).

Q: For `CCc1cc(Nc2ccc(Sc3ccncc3)cc2)nc(N)n1` [Example 42, N-(2-amino-6-ethyl-4-pyrimidinyl)-N-[4-(4-pyridinylsulfanyl)phenyl]amine], which melting point is on record?
A: The melting point was 181 to 186 °C.
